From ChEMBL document CHEMBL1201862, “PubChem BioAssay data set” (2004) come the findings set out here.

Among the test systems are RXF 393; EKVX; MDA-MB-231; KM12; M14; OVCAR-5; RPMI-8226; HCC 2998; MDA-MB-435; COLO 205; BT-549; NCI-H460; CAKI-1; HCT-15; SR; U-251; DU-145; NCI-H522; SN12C.
Common to all, as to experiment: growth of human tumour cells (NCI), 48 h

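Results reflect a 48-hour exposure of cells in 96-well plates to compound at five concentrations. Here, GI50 denotes the concentration required for 50% inhibition of growth.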 Activity calls are given as the source filed them. Rule as the data show it: active = GI50 up to about 1.1 µM and inactive = higher.

For `O=C1[C@H](O)[C@@H]2C(O)O[C@H]3[C@@H]2N1C[C@H]3[Si](c1ccccc1)(c1ccccc1)c1ccccc1` (stereo partly drawn), the GI50 was 20.2 µM (inactive) with RXF 393; > 100 µM (inactive) with EKVX; > 100 µM (inactive) in the assay with MDA-MB-231; > 100 µM (inactive) in the assay on KM12; > 100 µM (inactive) with M14; > 100 µM (inactive) in the assay on OVCAR-5. Moreover, the GI50 in the assay on RPMI-8226, in the assay on HCC 2998, in the assay with MDA-MB-435, in the assay on COLO 205, in the assay on BT-549 and in the assay on NCI-H460 was > 100 µM (inactive) each time. Moreover, the GI50 is > 100 µM (inactive) in the assay on CAKI-1; above 100 µM in the assay with HCT-15; > 100 µM (inactive) in the assay with SR; > 100 µM (inactive) with U-251; > 100 µM (inactive) with DU-145.
Turning to `C=C(C)[C@H]1C=C[C@@H](OC(C)=O)[C@@]2(COC(C)=O)[C@H](OC(=O)CCC)[C@H]3[C@@H](OC(C)=O)[C@@H](C)C[C@]3(O)C(=O)[C@@](C)(OC(C)=O)[C@H]12`, the GI50 in the assay with RXF 393 was > 100 µM (inactive); in the assay with EKVX, 38.2 µM (inactive); in the assay with MDA-MB-231, 56.9 µM (inactive); in the assay with KM12, 39.9 µM (inactive); in the assay with M14, 31.8 µM (inactive); with OVCAR-5 it was 60.4 µM (inactive). In addition, the GI50 in the assay with RPMI-8226 is 30.3 µM (inactive); with HCC 2998 it was 27.1 µM (inactive); in the assay with NCI-H522 it was 56 µM (inactive); in the assay on MDA-MB-435 it was 15.3 µM (inactive); in the assay on COLO 205, 22 µM (inactive); in the assay on BT-549, 58.2 µM (inactive). For the same molecule, the GI50 in the assay with NCI-H460 was 21.2 µM (inactive); in the assay with CAKI-1, > 100 µM (inactive); with HCT-15, 36.2 µM; in the assay on SN12C, 36 µM (inactive); in the assay with SR it was 36.3 µM (inactive); with U-251, 33.9 µM (inactive).
Turning to `CC(Cc1ccc(O)cc1)NCC(O)c1ccc(O)c(O)c1` (stereo not drawn), the GI50 in the assay with RXF 393 is > 100 µM (inactive); in the assay with EKVX, > 100 µM (inactive); with MDA-MB-231, 3.35 µM (inactive); with KM12, > 100 µM (inactive); in the assay with M14, > 100 µM (inactive); in the assay on OVCAR-5 it was > 100 µM (inactive). The GI50 in the assay with RPMI-8226, in the assay with NCI-H522, with MDA-MB-435, in the assay on BT-549, with NCI-H460 and with CAKI-1 was > 100 µM (inactive) in each case. Further, the GI50 in the assay on HCT-15 was above 100 µM; in the assay with SN12C, > 100 µM (inactive); with SR, 88.3 µM (inactive); in the assay with U-251, > 100 µM (inactive); in the assay on DU-145 it was > 100 µM (inactive).
As for `CCC(C(=O)C(=O)OC)P1(=O)OC(C)(C)CN1C(C)(C)C` (stereo not drawn), the GI50 with EKVX, in the assay on MDA-MB-231, in the assay on KM12, with M14, in the assay with OVCAR-5 and in the assay on RPMI-8226 was > 100 µM (inactive) throughout. The GI50 with HCC 2998, in the assay with MDA-MB-435, in the assay on COLO 205, in the assay with BT-549, in the assay with NCI-H460 and in the assay with CAKI-1 was > 100 µM (inactive) in each case. Moreover, the GI50 is above 100 µM in the assay with HCT-15, > 100 µM (inactive) in the assay on SR, > 100 µM (inactive) with U-251 and > 100 µM (inactive) in the assay on DU-145.
